The test system of data set [1] is Leishmania donovani. Description: Potency index, ratio of Artemisinin IC50 to test compound IC50 for antileishmanial activity against Leishmania donovani promastigotes. The format is functional.
Data set [2] deals with Leishmania donovani. The data set can be described thus: Antileishmanial activity against Leishmania donovani promastigotes. In kind it is functional, organism-based.
In data set [3] the test system is Trypanosoma cruzi. Description: Antitrypanosomal activity against Trypanosoma cruzi trypomastigotes. In kind it is functional, organism-based.
Data set [4] is described as follows: Selectivity index, ratio of CC50 for African green monkey Vero cells to IC50 for Trypanosoma cruzi trypomastigotes. In kind it is toxicity. Conditions: read-out: Ratio CC50/IC50.
Data set [5] has as its system Trypanosoma cruzi. The data set can be described thus: Antitrypanosomal activity against Trypanosoma cruzi epimastigotes. The format is functional, organism-based.
Data set [6] in a line: Selectivity index, ratio of CC50 for African green monkey Vero cells to IC50 for Leishmania donovani promastigotes. In kind it is toxicity. Conditions: read-out: Ratio CC50/IC50.
Data set [7] relates to Vero. Description: Cytotoxicity against African green monkey Vero cells up to 4.76 ug/ml by neutral red assay. In kind it is cell-based. Conditions: chlorocebus sabaeus, dose <=4.76 µg/ml.
The test system of data set [8] is Trypanosoma cruzi. Description: Potency index, ratio of artesunate IC50 to test compound IC50 for antitrypanosomal activity against Trypanosoma cruzi trypomastigotes. The format is functional.
The nature of data set [9]: Cytotoxicity against African green monkey Vero cells by neutral red assay. Conditions: chlorocebus sabaeus. In kind it is cell-based.
The test system of data set [10] is Trypanosoma cruzi. Description: Trypanocidal activity against Trypanosoma cruzi epimastigotes at 100 uM measured after 24 hrs. In kind it is functional.
Data set [11] concerns Trypanosoma cruzi. The data set can be described thus: Potency index, ratio of benznidazole IC50 to test compound IC50 for antitrypanosomal activity against Trypanosoma cruzi trypomastigotes. In kind it is functional.
Data set [12] is described as follows: Selectivity index, ratio of CC50 for African green monkey Vero cells to IC50 for Trypanosoma cruzi epimastigotes. The format is toxicity. Conditions: read-out: Ratio CC50/IC50.

The structures appear in SMILES notation.

The IC50 is the concentration at which inhibition is half-maximal. What is called IC90 is the concentration at which the effect reaches the 90% level. For the compound `CC(=O)CCCC(C)(C)C(=O)/C=C/C(=O)/C=C/c1ccc(C(=O)NCc2ccccc2)cc1`, in [1], the “Ratio IC50” value is reported as more than 10. The values for the IC50 in data set [2], in data set [3] and in data set [5] were 5.39 µM, 10.2 µM and more than 100 µM, respectively. The IC90 in [2] turned out to be 13.5 µM. In addition, the selectivity ratio in [4] is not below 1.05; in data set [6], 1.98.
Turning to `COC(=O)c1ccc(/C=C/[C@]23C=C[C@@]4(OO2)C(C)(C)CCC(OC(C)=O)[C@]4(C)O3)cc1` (mixture of isomers), the Activity result in data set [7] is given as “Non-Toxic”. For the same compound, in data set [1], the “Ratio IC50” value was more than 10. For the same compound, in data set [2], the half-maximal inhibitory concentration (IC50) is 7.01 µM and it took 15.2 µM to reach the 90% level (IC90). For the same compound, in data set [6], the selectivity ratio was found to be 1.59.
The term CC50 denotes the concentration at which the toxic effect on the cells reaches its halfway point. Take `CC1(C)CCC[C@]2(C)O[C@@]3(/C=C/c4ccc(C(=O)NCc5ccccc5)cc4)C=C[C@@]12OO3` (racemic): the figures for the “Ratio IC50” value in data set [1], in data set [8] and in data set [11] were more than 10, 10 and 13, respectively. Further, the IC50 in [2] was found to be 2.47 µM; in data set [3], 1.16 µM; in data set [5], 2.48 µM. Further, in data set [2], it took 15.7 µM to reach the 90% level (IC90). In data set [9], this compound showed a CC50 of more than 10.7 µM. For the same compound, the selectivity ratio is not below 9.21 in data set [4], 4.33 in [6] and not below 4.3 in data set [12]. In [10], this compound gave an Activity of 100%.
Regarding `CC1(C)CC[C@H](O)[C@]2(C)O[C@@]3(/C=C/c4ccc(C(=O)NCc5ccccc5)cc4)C=C[C@@]12OO3` (racemic), the “Ratio IC50” value in data set [1] is more than 10. In addition, in [2], the IC50 turned out to be 3.47 µM and the 90% effect concentration (IC90) amounted to 5.42 µM. In data set [9], this compound showed a half-maximal cytotoxic concentration (CC50) not below 9.33 µM. Also, in [6], the selectivity ratio came out at 2.69.
For the compound `CC1(C)CC[C@@H](O)[C@]2(C)O[C@@]3(C)C=C[C@@]12OO3` (racemic), in [2], the concentration for half-maximal inhibition (IC50) was more than 100 µM and the 90% effect concentration (IC90) is more than 100 µM.
As to `CC1(C)CC=C[C@]2(C)O[C@@]3(C)C=C[C@@]12OO3` (racemic), in data set [2], the half-maximal inhibitory concentration (IC50) is more than 100 µM and the IC90 was more than 100 µM.
In [2], `CC1(C)CC=C[C@]2(C)O[C@@]3(C)CC[C@@]12OO3` (racemic) gave an IC50 of more than 100 µM and an IC90 of more than 100 µM.
In data set [2], `CC1(C)CCC(=O)[C@]2(C)O[C@@]3(C)C=C[C@@]12OO3` (racemic) registered a 50% inhibitory concentration (IC50) of more than 100 µM and an IC90 of more than 100 µM.
In data set [2], `CC1(C)CC[C@@H](O)[C@]2(C)O[C@@]3(C)CC[C@@]12OO3` (racemic) returned an IC50 of more than 100 µM and an IC90 of more than 100 µM.
Take `CC1(C)CC[C@@H](O)[C@]2(C)O[C@@]3(/C=C/c4ccc(C(=O)NCc5ccccc5)cc4)C=C[C@@]12OO3` (racemic): the Activity result in [7] is reported as “Non-Toxic”; in data set [10] it was 100%. Further, the “Ratio IC50” value in data set [1] is reported as more than 10; in [8], 20; in data set [11], 13. The half-maximal inhibitory concentration (IC50) was determined as 7.59 µM in [2], 0.62 µM in data set [3] and 2.66 µM in data set [5]. This compound showed an IC90 in [2] of 15.2 µM. The selectivity ratio is not below 16.6 in data set [4], 1.36 in [6] and not below 3.88 in data set [12].
In data set [2], `CC(=O)O[C@H]1CCC(C)(C)[C@@]23C=C[C@@](C)(OO2)O[C@@]13C` (racemic) gave an IC50 of more than 100 µM and a concentration for an effect of 90% (IC90) of more than 100 µM.
In data set [2], `CC1(C)CCC[C@]2(C)O[C@@]3(C)C=C[C@@]12OO3` (racemic) registered an IC50 of more than 100 µM and an IC90 of more than 100 µM.
In data set [2], `CC1(C)CC[C@H](O)[C@]2(C)O[C@@]3(C)C=C[C@@]12OO3` (racemic) returned a half-inhibitory concentration (IC50) of more than 100 µM and a concentration for an effect of 90% (IC90) of more than 100 µM.
Consider `CC(=O)O[C@@H]1CCC(C)(C)[C@@]23CC[C@@](C)(OO2)O[C@@]13C` (racemic), for which, in data set [2], the IC50 was more than 100 µM and the IC90 was more than 100 µM.
In [2], `CC1(C)CCC(=O)[C@]2(C)O[C@@]3(C)CC[C@@]12OO3` (racemic) displayed an IC50 of more than 100 µM and an IC90 of more than 100 µM.
Regarding `COC(=O)c1ccc(/C=C/[C@]23C=C[C@@]4(OO2)C(C)(C)CCC[C@]4(C)O3)cc1` (racemic), the “Ratio IC50” value in data set [1] is listed as more than 10; in data set [8], 10; in data set [11], 13. For the same compound, the IC50 in data set [2] was determined as 8.38 µM; in [3] it was 0.84 µM; in data set [5], 2.27 µM. For the same compound, in data set [2], the IC90 amounted to 18.9 µM. The half-maximal cytotoxic concentration (CC50) in data set [9] was more than 12.8 µM. Moreover, the results for the selectivity ratio in data set [4], in data set [6] and in data set [12] were not below 15.3, 1.54 and not below 5.56, respectively. The Activity in data set [10] was 100%.
For the compound `CC1(C)CC[C@H](O)[C@]2(C)O[C@@]3(C)CC[C@@]12OO3` (racemic), in data set [2], the 50% inhibitory concentration (IC50) was more than 100 µM and the IC90 is more than 100 µM.
Regarding `COC(=O)c1ccc(/C=C/[C@]23C=C[C@@]4(OO2)C(C)(C)CC[C@@H](O)[C@]4(C)O3)cc1` (racemic), in data set [1], the “Ratio IC50” value is reported as more than 10. In data set [2], this compound had an IC50 of 5.18 µM and an IC90 of 15.5 µM. In addition, in data set [9], the CC50 was more than 11.1 µM. Moreover, the selectivity ratio in [6] worked out at 2.38.
As for `CC(=O)O[C@@H]1CCC(C)(C)[C@@]23C=C[C@@](C)(OO2)O[C@@]13C` (racemic), in data set [2], the IC50 was more than 100 µM and the 90% effect concentration (IC90) is more than 100 µM.
In [2], `C[C@@H]1[C@H](O)[C@@H](C)/C=C/C=C/C=C/C=C/C=C/C=C/C=C/[C@H](O[C@@H]2O[C@H](C)[C@@H](O)[C@H](N)[C@@H]2O)C[C@@H]2O[C@](O)(C[C@@H](O)C[C@@H](O)[C@H](O)CC[C@@H](O)C[C@@H](O)CC(=O)O[C@H]1C)C[C@H](O)[C@H]2C(=O)O` [AMPHOTERICIN B] yielded a half-inhibitory concentration (IC50) of 0.19 µM and an IC90 of 0.41 µM.
For `C[C@@H]1CC[C@H]2[C@@H](C)C(=O)O[C@@H]3O[C@@]4(C)CC[C@@H]1[C@]32OO4` [ARTEMISININ], the IC50 in data set [2] was more than 100 µM.
On to `C[C@H]1[C@H](OC(=O)CCC(=O)O)O[C@@H]2O[C@@]3(C)CC[C@H]4[C@H](C)CC[C@@H]1[C@@]24OO3` [ARTESUNATE], for which the 50% inhibitory concentration (IC50) worked out at 12.1 µM in data set [2], 13 µM in data set [3] and 9.44 µM in data set [5].
Turning to `O=C(Cn1ccnc1[N+](=O)[O-])NCc1ccccc1` [BENZNIDAZOLE], the IC50 in [3] was 14.9 µM; in data set [5], 32.5 µM.
With `N=C(N)c1ccc(OCCCCCOc2ccc(C(=N)N)cc2)cc1` [PENTAMIDINE], in [2], the 90% effect level (IC90) was put at 5.29 µM.

The values are drawn from ChEMBL document CHEMBL4725366, “Expanding the scope of synthetic 1,2,4-trioxanes towards Trypanosoma cruzi and Leishmania donovani” (Bioorg Med Chem Lett, 2020).
